In patent US5593988A, “Therapeutic agent for osteoporosis and diazepine compound” (Yoshitomi Pharmaceutical Industries, Ltd., priority 1991, dated 1997) one finds inhibition data, which are given here for 26 compounds.

Where two headings read alike, the source gives them in different places.

The subject of this experiment is bone resorption (parietal bone). Nature of the experiment: Bone resorption-inhibitory activity (45Ca release from newborn mouse parietal bone, hPTH (1-34) stimulated, method of Raisz). It counts as cell-based, ICR mouse. The following applies: read-out: bone resorption-inhibitory action, % against control. An excerpt:
The method for determining the bone resorption-inhibitory activity of the Compound (I) and the results are shown in the following.
Bone resorption-inhibitory activity
The determination of the bone resorption-inhibitory activity basically followed the method of Raisz [J. Clin. Invest., vol. 44, pp. 103-116 (1965)].
A 1-2 days old new born ICR mouse was intraperitoneally administered with 1.5μ Ci ^45 Ca (CaCl2 solution of isotope of calcium) and parietal bone was asceptically removed the next day. The parietal bone was split into two along the central sature line and one of them was used as a control and the other was used for the experiment. The bone was preincubated in 0.5 ml of a BGJb medium (Fitton-Jackson modification, GIBCO Laboratories, U.S.A.) added with the test compound to a concentration of 5 μM or 20 μM and bovine serum albumin (1 mg/ml) at 37° C. for 2 days, and further incubated in the aforementioned medium containing 50 nM hPTH (1-34) for 3 days. After the incubation, the radioactivity of ^45 Ca in the medium and in the bone was measured and the ratio (%) of ^45 Ca released from the bone into the medium was calculated. [formula]
Using the bone obtained from the same mouse and treated in the same manner without the test compound as a control, the ratio (%) against the control was calculated according to the following equation. [formula]
The average of these values obtained from four pairs from each group was calculated.

Setting [1] is: 20 μM, Table 20, average of four pairs.
[2] abbreviates: Table 20, average of four pairs.

In the case of `CCCCCCCCCCCc1nnc2n1-c1ccccc1C(c1ccc(Cl)cc1)NC2` (centres unmarked) [compound 515], the inhibition at 20 µM (20 μM, Table 21, average of four pairs) turned out to be 29.9%.

Regarding `CCCCCCCCCCCc1nnc2n1-c1sc(CC)cc1C(c1ccccc1)OC2` (centres unmarked) [compound 304], the inhibition at 20 µM under setting [1] came to 28.6%. As for `CCc1cc2c(s1)-n1ccnc1CN=C2c1ccccc1Cl` [compound 67], the inhibition at 20 µM turned out to be 55.3%. On to `CCc1cc2c(s1)-n1c(C)nnc1C(NC(=O)Cc1ccccc1)N=C2c1ccccc1Cl` (centres unmarked) [compound 255], for which the inhibition at 20 µM under setting [1] is 54.3%. Same read-out and setting: the value for `Cc1nnc2n1-c1sc(CCc3ccc(CC(C)C)cc3)cc1C(c1ccccc1Cl)=NC2c1ccccc1` (centres unmarked) [compound 44] was 15.7%; that for `CCCCCCCCCCCc1nnc2n1-c1sc3c(c1C(c1ccccc1Cl)OC2)CCCC3` (centres unmarked) [compound 307] was 42.4%. As to `CCc1cc2c(s1)-n1c(C)nnc1C(NC(=O)Nc1cccc(C)c1)N=C2c1ccccc1` (centres unmarked) [compound 88], under setting [2], the inhibition at 5 µM stood at 33.8%. On to `CCc1cc2c(s1)-n1c(C)nnc1C(NS(=O)(=O)c1ccc(C)cc1)N=C2c1ccc(Cl)cc1` (centres unmarked) [compound 254], for which the inhibition at 20 µM under setting [1] stood at 32.5%. With `Cc1nnc2n1-c1sc(CCC(=O)N3CCN(C(c4ccccc4)c4ccccc4)CC3)cc1C(c1ccccc1Cl)=NC2` [compound 36], under setting [1], the inhibition at 20 µM stood at 21.9%. For the compound `Clc1ccc2c(c1)C(c1ccccc1Cl)=NCc1nccn1-2` [compound 70], the inhibition at 20 µM was determined as 50.3%. Regarding `Cc1nnc2n1-c1ccccc1C(c1ccc(Cl)cc1)=NC2NC(=O)Nc1ccccn1` (centres unmarked) [compound 522], the inhibition at 20 µM came out at 32.8%. As to `CCc1cc2c(s1)-n1c(C3CCCCC3)nnc1C(NC(=O)Nc1cccc(C)c1)N=C2c1ccccc1Cl` (centres unmarked) [compound 84], under setting [2], the inhibition at 5 µM came to 65.3%. On to `CCCc1nnc2n1-c1sc(CCc3ccc(CC(C)C)cc3)cc1C(c1ccccc1Cl)=NC2` [compound 35], for which the inhibition at 20 µM turned out to be 20%. As to `Cc1nnc2n1-c1sc(CCc3ccc(CC(C)C)cc3)cc1C(c1ccc(OCCN(C)C)cc1)=NC2` [compound 32], the inhibition at 20 µM under setting [1] turned out to be 16%. On to `Cc1nnc2n1-c1sc(CCc3ccc(CC(C)C)cc3)cc1C(c1ccccc1)=NC2` [compound 1], for which the inhibition at 20 µM came out at 30.7%. The same measure, in the same setting: for `CCCCCCCCCCCc1nnc2n1-c1ccccc1C(c1ccc(Cl)cc1)=NC2` [compound 513] the value was 43.3%. As to `CCCCCCCCc1cc2c(s1)N(CCN(C)C)C(=O)CN=C2c1ccccc1Cl` [compound 62], the inhibition at 20 µM was 27.4%.

In the case of `CCCCCCCCCCc1ccc2c(c1)-n1c(C)nnc1C(C)N=C2c1ccccc1` (centres unmarked) [compound 520], the inhibition at 20 µM was found to be 22.5%. Regarding `CCc1cc2c(s1)-n1c(noc1=O)CN=C2c1ccccc1Cl` [compound 66], the inhibition at 20 µM is 56.3%. As for `CCCCCCCc1nnc2n1-c1sc(CC)cc1C(c1ccc(OC)cc1)OC2` (centres unmarked) [compound 348], the inhibition at 20 µM under setting [1] worked out at 30.3%.

For the compound `Cc1nnc2n1-c1sc(CCc3ccc(CC(C)C)cc3)cc1C(c1ccccc1F)=NC2` [compound 30], the inhibition at 20 µM was found to be 20.6%.

On to `CCc1cc2c(s1)-n1c(C)nnc1C(NC(=O)Nc1cccc(C)c1)N=C2c1ccc(C)cc1` (centres unmarked) [compound 86], for which the inhibition at 5 µM under setting [2] came to 30.3%. For `Cc1cccc(NC(=O)OCC2N=C(c3ccccc3)c3ccccc3-n3c(C)nnc32)c1` (centres unmarked) [compound 510], the inhibition at 20 µM amounted to 28.3%. As to `CCCCCCCCCCc1ccc2c(c1)C(c1ccccc1)=NC(C)c1nnc(C)n1-2` (centres unmarked) [compound 519], the inhibition at 20 µM was found to be 21.1%. The same measure, in the same setting: for `Cc1nnc2n1-c1ccccc1C(c1ccc(Cl)cc1)=NC2NC(=O)NC(=O)c1ccccc1` (centres unmarked) [compound 525] the value was 26.8%. Take `CCc1cc2c(s1)-n1c(C)nnc1C(CC(=O)Nc1ccccc1OC)N=C2c1ccc(Cl)cc1` (centres unmarked) [compound 250]: the inhibition at 20 µM under setting [1] was 27.3%.
